Measured values from US8535226B2, “Method for measuring in vivo hematotoxicity with an emphasis on radiation exposure assessment” (Litron Laboratories, Ltd., priority 2007, dated 2013).

Key:
lymphocytes [1] = assay: Ex vivo treatment of human blood, TMRE mitochondrial membrane potential of lymphocytes by flow cytometry; type: cell-based; settings: whole blood treated ex vivo with 50 μM before staining with SYTO 13 and TMRE
Method: Furthermore, one fraction of blood was treated ex vivo with carbonyl cyanide 3-chlorophenylhydrazone (CCCP), a toxic chemical that is known to disrupt mitochondrial membrane potential.
Blood from a finger prick (approximately 150 μl) was collected into a tube containing 10 μl heparin solution (500 Units/ml; approximately 6% dilution). One 5 μl aliquot of heparinized whole blood was added to a tube with 1 ml Hank's Balance Salt Solution containing SYTO®13 at 5 nM, TMRE at 100 nM, and 20,720 counting beads per ml (beads from Molecular Probes, cat. no. C36950) (i.e., blood diluted another 200-fold). A second fraction of blood was treated with 50 μM CCCP before being stained with SYTO® and TMRE as above. After staining for 30 minutes at room temperature, the samples were analyzed with a FACSCalibur flow cytometer providing 488 nm excitation.
Acquisition was triggered with a FL1 threshold that was set sufficiently high so as to exclude platelets, mature erythrocytes and reticulocytes, thereby restricting acquisition to nucleated cells. By expressing light scatter in linear scale, it was possible to focus on particular subpopulations, for instance lymphocytes that are low in forward and side scatter relative to other nucleated cells (FIG. 4A). […]

lymphocytes [2] = assay: Radioprotectant evaluation using mouse blood: lymphocytes; type: in vivo, C57BL/6J mice; settings: 400 mg/kg ip, 30 minutes prior to 1 Gy gamma rays; blood collected 46±3 hrs post-irradiation
Method: In this experiment, one group of five C57BL/6J mice was sham irradiated, whereas two other groups of five mice were exposed to 1 Gy gamma rays. While one group of irradiated mice was injected with vehicle, the other was injected with the radioprotectant agent amifostine (400 mg/kg injected ip, 30 minutes prior to irradiation). […] 5 μl of whole blood were added to tubes containing 1 ml HBSS with SYTO®13 at 10 nM, TMRE at 100 nM, and 20,720 counting beads per ml (beads from Molecular Probes, cat. no. C36950). After 30 minutes at room temperature, the samples were moved to 4° C. and analyzed with a FACSCalibur flow cytometer providing 488 nm excitation. […] Furthermore, with the incorporation of the TMRE dye, it was possible to enumerate the percentage of lymphocytes that express dysfunctional mitochondrial membranes.

reticulocytes = assay: Radioprotectant evaluation using mouse blood: reticulocytes; type: in vivo, C57BL/6J mice; settings: 400 mg/kg ip, 30 minutes prior to 1 Gy gamma rays; blood collected 46±3 hrs post-irradiation
Method: In this experiment, one group of five C57BL/6J mice was sham irradiated, whereas two other groups of five mice were exposed to 1 Gy gamma rays. […] 5 μl of whole blood were added to tubes containing 1 ml HBSS with SYTO®13 at 10 nM, TMRE at 100 nM, and 20,720 counting beads per ml (beads from Molecular Probes, cat. no. C36950). After 30 minutes at room temperature, the samples were moved to 4° C. and analyzed with a FACSCalibur flow cytometer providing 488 nm excitation. In the first round of analysis, a forward scatter threshold was used to trigger data acquisition. With the trigger channel set sufficiently low, platelets as well as all blood cell types were acquired. Similar to thiazole orange, SYTO®13 dye in conjunction with light scatter signals was capable of resolving mature erythrocytes, reticulocytes, nucleated cells, platelets, and reticulated platelets. […] Reticulocytes can thus be quantified as a percentage of all erythrocytes, and reticulated platelets can be quantified as a percentage of all platelets. Furthermore, with the incorporation of the TMRE dye, it was possible to enumerate the percentage of reticulocytes that express dysfunctional mitochondrial membranes.

Structure (SMILES)	TMRE-associated fluorescence of lymphocytes / incidence of TMRE-negative lymphocytes (lymphocytes [1])	TMRE-associated fluorescence of lymphocytes / incidence of TMRE-negative lymphocytes (lymphocytes [1]; listed as carbonyl cyanide 3-chlorophenylhydrazone)	protection against decrease of percentage of lymphocytes by 1 Gy irradiation (lymphocytes [2])	reticulocyte effects of 1 Gy irradiation (decrease of reticulocytes, increase in percentage of reticulocytes with dysfunctional mitochondria) (reticulocytes)
N#CC(C#N)=NNc1cccc(Cl)c1 [CCCP, carbonyl cyanide 3-chlorophenylhydrazone]	increased incidence of events falling into this region	low TMRE-associated fluorescence	–	–
NCCCNCCSP(=O)(O)O [amifostine]	–	–	no appreciable protection	ameliorated
